Here are results for 71 compounds from PubChem BioAssay AID179 (DTP/NCI, 2004).

Calls of active or inactive are those of the source.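 The calls were made as follows: active = compounds giving half or more protection of infected cells from virus-caused growth loss, again on retest; inactive = the rest.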 Where a SMILES comes first, the peptide text is derived from it. The star is where a group is joined. Boc = CC(C)(C)OC(=O)*

The assay deals with CEM cells HIV-1 protection, formazan growth assay. Put plainly: NCI AIDS Antiviral Assay. The conditions noted are these: for IC50: measured here: growth of uninfected CEM cells. In outline: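 Human CEM cells, uninfected and HIV-1-infected, exposed to five drug concentrations; growth measured by soluble formazan assay and scored as percent protection from infection, with protecting compounds retested.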

As to `CC(=O)O[C@@]1(C)C[C@@H](O)[C@]2(O)C=CO[C@@H](OC3OC(CO)C(O)C(O)C3O)[C@@H]21` (some centres undefined), the result was inactive.

Consider `O=C1c2ccccc2C(=O)c2nc3c(O)cccc3cc21`, for which the EC50 was above 19.1 µM and the IC50 is above 19.1 µM.

For the compound `c1ccc2c(c1)SCC1COCOC21` (centres undefined), the EC50 is above 631 µM and the IC50 turned out to be 617 µM.

On to `C/C(CC(C)C)=N/Nc1nc(C)cc(=O)[nH]1`, for which the EC50 was above 200 µM and the IC50 was above 200 µM.

On to `CSCCC(NC(=O)C(CC(C)C)NC(=O)C1CCCN1C(=O)C(Cc1ccccc1)NC(=O)C(Cc1ccccc1)NC(=O)C(CCC(=O)O)NC(=O)OC(C)(C)C)C(N)=O` (centres undefined) (Boc-EFFPLM-NH2; configuration not given here), for which the EC50 is above 282 µM and the 50% inhibitory concentration (IC50) was above 282 µM.

Take `FC(F)(F)c1ccc(C=NC23CC4CC(CC(C4)C2)C3)cc1`: the EC50 is above 61.7 µM and the IC50 was above 61.7 µM.

As to `CCCC/C=C/C/C=C/CCCCCCCCC(=O)OCC1CCCN2CCCCC12` (centres undefined), the EC50 was above 200 µM and the IC50 came to 7.94 µM.

Consider `C=CC1(c2ccc(Br)cc2)OCCCO1`, for which the EC50 was above 200 µM and the IC50 is above 200 µM.

As to `CCOC(=O)N1CCN(c2ccc3ccc(N)nc3n2)CC1`, the EC50 is above 200 µM and the IC50 turned out to be 148 µM.

With `Clc1ccc(C2=Nc3ccccc3SC(c3cccs3)C2)cc1` (centres undefined), the EC50 was above 7.59 µM and the IC50 was above 7.59 µM.

With `CCN(CC)C(=O)N1CN(c2ccccc2)C2(CCN(CCCC3(c4ccc(F)cc4)OCCO3)CC2)C1=O`, the EC50 is above 200 µM and the IC50 amounted to 27.5 µM.

With `CCOc1ccc(/C=N/NC(=O)C(=O)N/N=C/c2ccc(OCC)c(OCC)c2)cc1OCC`, the EC50 was above 200 µM and the IC50 is above 200 µM.

Turning to `COc1ccc(-n2cnn3c(=O)c4cn[nH]c4nc23)cc1`, the EC50 is above 200 µM and the IC50 is above 200 µM.

In the case of `O=c1c(N(CCO)CCO)cn(C(c2ccccc2)(c2ccccc2)c2ccccc2)c(=O)n1C(c1ccccc1)(c1ccccc1)c1ccccc1`, the EC50 is above 200 µM and the IC50 was found to be 3.02 µM.

Take `CN(C)C12CCCCCCC1S(=O)(=O)C2` (centres undefined): the EC50 was above 363 µM and the IC50 amounted to 302 µM.

As for `C/C(CN1C(=O)c2ccccc2C1=O)=N\NS(=O)(=O)c1ccc2ccccc2c1`, the EC50 was above 447 µM and the IC50 was above 447 µM.

On to `CCOC(=O)N1CCN(P(=O)(Nc2ccc3nc(NC(=O)OC)[nH]c3c2)Oc2ccccc2)CC1` (centres undefined), for which the EC50 was above 135 µM and the concentration for half-maximal inhibition (IC50) was 53.7 µM.

On to `O=C1NC(=O)C(c2ccccc2)(c2ccccc2)N1`, for which the EC50 was above 372 µM and the IC50 is above 372 µM.

Consider `Cc1ccccc1-n1c(=O)sc2c(=O)n(-c3ccccc3)c(=S)[nH]c21`, for which the EC50 was above 2.82 µM and the IC50 was above 2.82 µM.

On to `O=c1[nH]n(Cc2ccccc2Cl)c2ccc([N+](=O)[O-])cc12`, for which the EC50 was above 200 µM and the IC50 was 69.2 µM.

`COc1cc2c(cc1OC)C13CCN4CC5=CCOC(CC(=O)O)C(C5CC41)C3N2` (centres undefined) came in with an EC50 of 25.7 µM and an IC50 of 151 µM.

As for `C[N+](C)(C)CC(=O)N/N=C(/C(=O)Nc1ccc(Br)cc1)C1C(=O)NC(=O)NC1=O`, the EC50 was above 200 µM and the IC50 was above 200 µM.

For `CCOC(=O)C(C)c1nc2cc(N3CCOCC3)c(F)cc2[nH]c1=O` (centres undefined), the EC50 is above 200 µM and the half-maximal inhibitory concentration (IC50) is above 200 µM.

Take `Cc1ccccc1NC(=O)C(=O)CC(=O)c1c(C)n([O-])c2ccccc2[n+]1=O`: the EC50 was above 3.8 µM and the IC50 is above 3.8 µM.

With `C=C[C@H]1C=Cc2c(OC)cccc2[C@@H]1COP1(=S)NC(C)C(c2ccccc2)O1` (some centres undefined), the result was inactive.

Regarding `CC1=NC(=Cc2cccc(Cl)c2)C(=O)N1n1c(-c2ccccc2)nc2ccccc2c1=O`, the EC50 was above 200 µM and the IC50 stood at 36.3 µM.

Consider `CC(=O)NNc1nc(C)c(C(=O)NNC(=O)C(=O)Nc2c(C)cccc2C(C)C)s1`, for which the EC50 was above 60.3 µM and the IC50 came out at 52.5 µM.

On to `COC(=O)C1C(=O)N(C)c2cc(C)c(C)cc2C1(C)C` (centres undefined), for which the EC50 is above 200 µM and the IC50 is above 200 µM.

On to `CC(=O)[C@@]1(O)CC[C@H]2[C@@H]3C[C@H](C)C4=CC(=O)C=C[C@]4(C)[C@@]3(F)[C@@H](O)C[C@@]21C`, for which the outcome was inactive.

Take `CCCC[PH+](CCCC)CCCC.[C-]#[O+].[C-]#[O+].[C-]#[O+].[C-]#[O+].[Fe]`: the EC50 was above 200 µM and the IC50 was above 200 µM.

Turning to `C=CCNC(=O)NCCCC(NC(C)=O)C(=O)NCc1ccccc1` (centres undefined), the EC50 is above 72.4 µM and the IC50 was above 72.4 µM.

Turning to `O=C(O)c1ccccc1CC(Cc1ccccc1)C(=O)O` (centres undefined), the EC50 was above 200 µM and the IC50 was 126 µM.

As to `CC(C)(Cc1ccccc1)N1C(=O)N1C(C)(C)Cc1ccccc1`, the EC50 was above 200 µM and the IC50 was 28.8 µM.

With `CC[C@H]1CN2CCc3cc(OC)c(OC)cc3[C@@H]2C[C@@H]1C[C@H]1NCCc2cc(OC)c(OC)cc21`, the result was inactive.

As for `CCOP(=O)(OCC)/C(C#N)=C/c1ccc(OC)cc1`, the EC50 is above 316 µM and the IC50 was above 316 µM.

Consider `CCOP(=O)(OCC)C(c1ccc(F)cc1)N(C(=O)NC(F)(F)F)c1cccc(C(F)(F)F)c1` (centres undefined), for which the EC50 was above 200 µM and the half-maximal inhibitory concentration (IC50) is 145 µM.

With `Nc1ccc(S(=O)(=O)Cc2ccc(C(=O)O)cc2[N+](=O)[O-])cc1`, the EC50 is above 107 µM and the IC50 was above 107 µM.

On to `O=C1C=CC(=O)c2c(O)cccc21`, for which the outcome was inactive.

In the case of `O=C(O)CN(c1ccccc1)S(=O)(=O)c1ccc(Cl)cc1`, the result was inactive.

As for `O=C(N=C1OC2C(OC(=O)c3ccccc3)C(COC(=O)c3ccccc3)OC2N1C(=O)c1ccccc1)c1ccccc1` (centres undefined), the EC50 is above 200 µM and the IC50 stood at 107 µM.

In the case of `O=C(O)C1CCCN1C(=O)c1cc(Cl)ccn1` (centres undefined), the EC50 is above 200 µM and the IC50 is above 200 µM.

In the case of `CC(C)CCCC(C)N` (centres undefined), the EC50 was above 200 µM and the half-maximal inhibitory concentration (IC50) is above 200 µM.

As for `N#Cc1[nH]c(=O)n(-c2ccccc2)c1N`, the EC50 is above 200 µM and the IC50 was above 200 µM.

Regarding `CCOC(=O)CNC(=O)C(CSSCC(NC(=O)OCc1ccccc1)C(=O)O)NC(=O)OCc1ccccc1` (centres undefined), the EC50 was above 200 µM and the 50% inhibitory concentration (IC50) is above 200 µM.

For the compound `CNC(C#N)c1ccc(OC)cc1` (centres undefined), the EC50 is above 200 µM and the IC50 is 105 µM.

`Nc1nc2c(s1)CCC2`: the EC50 is above 708 µM and the half-maximal inhibitory concentration (IC50) amounted to 5.62 µM.

For the compound `O=S1(=O)c2ccccc2N=C(c2ccccc2Cl)CC1c1ccc(F)cc1` (centres undefined), the EC50 was above 14.8 µM and the IC50 came to 10.5 µM.

For `CC1NOC(=O)C1N=Nc1ccc(Cl)cc1Cl` (centres undefined), the EC50 was above 36.3 µM and the IC50 was above 36.3 µM.

For `CC1CC(C)C2=NOS3=C2C1=NO3` (centres undefined), the EC50 was above 200 µM and the concentration for half-maximal inhibition (IC50) was above 100 µM.

As for `CC(=O)OC1OC2C(NC(=O)OC(C)(C)C)C1CC2(OCc1ccccc1)OCc1ccccc1` (centres undefined), the EC50 is above 28.2 µM and the half-maximal inhibitory concentration (IC50) was above 28.2 µM.

As for `CN1c2c(C(=O)NCCCN3CCOCC3)nn(-c3cccc(C(F)(F)F)c3)c2-c2ccccc2S1(=O)=O`, the EC50 was above 66.1 µM and the IC50 was above 66.1 µM.

Regarding `CC1C/C(=C\c2ccc(OC(=O)C(C)(C)C)cc2)C(=O)/C(=C/c2ccc(OC(=O)C(C)(C)C)cc2)C1` (centres undefined), the EC50 was above 50.1 µM and the half-inhibitory concentration (IC50) was determined as 22.4 µM.

For `O=[N+]([O-])c1cc2ccc1OCc1cccc(n1)COc1ccc(cc1[N+](=O)[O-])C=NCCCCCCCCN=C2`, the EC50 was above 200 µM and the 50% inhibitory concentration (IC50) is above 200 µM.

`CC1C(c2ccc(F)cc2)c2cc3c(cc2OC1N1CCCC1)OCO3` (centres undefined): the EC50 is above 200 µM and the IC50 was found to be 129 µM.

On to `CC(C)N1CC2CN(Cc3ccccc3)CC(C1)C2=O`, for which the EC50 is above 479 µM and the IC50 is above 479 µM.

`COC(=O)N(C)C(C#N)CCc1ccccc1` (centres undefined): the EC50 was above 15.5 µM and the IC50 is above 15.5 µM.

As to `CCCCc1ccc(C(N)=O)nc1`, the EC50 was above 200 µM and the IC50 is above 200 µM.

On to `O=C1NC(O)c2cc(O)ccc2O1` (centres undefined), for which the EC50 is above 200 µM and the IC50 was found to be 81.3 µM.

In the case of `CC1(C)COC1(c1ccccc1)c1cccnc1` (centres undefined), the EC50 was above 200 µM and the IC50 came to 148 µM.

For `CN1C/C(=C\c2ccc(Cl)cc2)C(=O)/C(=C/c2ccc(Cl)cc2)C1`, the EC50 is above 200 µM and the IC50 stood at 0.417 µM.

For `C/C=C1\CC(C(=O)OCC)CCCCCCC1=O` (centres undefined), the EC50 is above 200 µM and the half-inhibitory concentration (IC50) came out at 17.4 µM.

Consider `CC1CC[C@@H](C(C)C)[C@H](Oc2nnc(C3OC(CO)C(O)C3O)o2)C1` (some centres undefined), for which the EC50 is above 200 µM and the IC50 is above 200 µM.

In the case of `Cc1[nH]c(=O)n2c(C)nnc2c1C(=O)O`, the result was inactive.

In the case of `CCCc1cc(=O)oc2c3c(c4c(c12)OC(C)(C)CC4)O[C@H](C)[C@@H](C)[C@@H]3O`, the EC50 was 0.316 µM and the half-inhibitory concentration (IC50) was found to be 8.13 µM.

For the compound `CC(=O)O[C@@H]1CC[C@@]2(C)C(=O)C34C[C@@]5(C)C([C@@H](C)CCCC(C)C)CCC5(C)[C@](O)(O3)C(=O)[C@H]4C2C1(C)C` (some centres undefined), the EC50 was above 18.6 µM and the IC50 was above 18.6 µM.

Consider `Cc1c([N+](=O)[O-])ccc2c1C(=O)c1ccccc1C2=O`, for which the EC50 is above 200 µM and the IC50 was determined as 28.2 µM.

Turning to `Cc1cc(Br)ccc1N=Nc1c(C)nn(-c2ccccc2)c1-c1ccccc1`, the result was inactive.

For `O=C(Nc1ccc(C2=NCCN2)c(O)c1)c1ccc(C(=O)Nc2ccc(C3=NCCN3)c(O)c2)cc1`, the half-maximal effective concentration (EC50) was 95.5 µM and the IC50 was above 200 µM.

Regarding `CCOC(=O)/C=C\n1c(=O)cc(C)c2ccccc21`, the EC50 is above 200 µM and the IC50 was above 200 µM.

On to `O=C1/C(=C/c2ccc(Cl)cc2)COc2ccc(Br)cc21`, for which the EC50 was above 14.8 µM and the IC50 was above 14.8 µM.

Take `O=S(=O)(NCCSSCCNS(=O)(=O)c1ccccc1)c1ccccc1`: the EC50 is above 200 µM and the IC50 is 13.5 µM.
